For test [1], the system named is CEM. Nature of the test: Western blot of HSP90, HSP70, CRT and HMGB1. The test is classed as cell-based, human. As to conditions: CC50 and CC100, 2h. As to the method: (§1) 1×10^6 cells/mL were seeded in a serum-free culture medium and treated with PKHB1 (CC50 and CC100 for each cell line) or left alone (Control) for 2h. Supernatants was recovered and lysed with lysis buffer (20 mM Tris pH 6.8, 2 mM EDTA, 300 mM NaCl and SDS 2%). Protein concentration was measured using the DC Protein Assay kit (Bio-Rad, Hercules, Calif., USA) and 50 μg of protein were loaded into SDS-PAGE gels. After blotting, nitrocellulose filters were probed with primary antibodies (1:1000) against HMGB1 (HAP46.5: sc-56698), HSP70 (C92F3A-5: sc-66048), HSP90 (F-8: SC-13119) and Calreticulin (F-4: sc373863). Anti-mouse or anti-rabbit-HRP served as secondary antibodies (Santa Cruz Biotechnology, CA, USA). Visualization was performed with ECL substrate system (Thermo Scientific, Waltham, Mass., USA).
Background: Immunoblotting shows a protein as a band on a membrane.

Test [2] deals with MOLT-4. Nature of the test: Western blot of HSP90, HSP70, CRT and HMGB1. The format is cell-based, human. The note with it: CC50 and CC100, 2h. Here is the method:
as §1

Test [3] deals with L5178Y-R. Nature of the test: Calreticulin exposure (flow cytometry, confocal microscopy). As to conditions: CC50 of PKHB1, 2h. The format is cell-based, murine. Here is the method:
(§2) 1×10^6 cells/mL were plated, treated with PKHB1, and incubated for 2h. Cells were harvested, washed, and stained with Calreticulin-PE (FMC-75, Enzo Life Science, Farmingdale, N.Y., USA) antibody (1:1000) in FACS buffer. After 1h of incubation in darkness at room temperature, cells were washed and resuspended in 100Lp of FACS buffer to be assessed by flow cytometry. For confocal microscopy (OlympusX70), poly-Llysine was added 24h to sterile coverslips and 1×10^6 cells/mL were seeded. PKHB1 was added and incubated for 2h. Then, the cells were stained with Calreticulin-PE antibody (1:500) and Hoechst, incubated 1h, and assessed by confocal microscopy.
On the technique in general: In flow cytometry, cells or beads pass a laser one at a time.

In test [4] the test system is CEM. Nature of the test: ATP release assay (luciferase bioluminescence). The format is cell-based, human. As to conditions: CC50 and CC100, 2h. Here is the method: (§3) 1×10^6 cells/mL were treated with PKHB1 (CC50 and CC100 for each cell lines) for 2h. Supernatants were used to assess extracellular ATP by a luciferase assay (ENLITEN kit, Promega, Madison Wis., USA) following the manufacturer's instructions. Bioluminescence was assessed in a microplate reader (Synergy HT, BioTek, Software Gen5, Winooski, Vt., USA) at 560 nm.

Test [5] has as its system MOLT-4. Nature of the test: ATP release assay (luciferase bioluminescence). The format is cell-based, human. The note with it: CC50 and CC100, 2h. As to the method:
as §3

Test [6] has as its system L5178Y-R. Nature of the test: HMGB1 release assay (ELISA). As to conditions: PKHB1 CC100, 2h. The test is classed as cell-based, murine. As to the method: Supernatants of untreated and treated (PKHB1 CC50 and CC100 for each cell line) leukemic cells (1×10^6 cells/mL) were used to measure extracellular HMGB1 using the HMGB1 ELISA kit for CEM, MOLT-4 or L5178Y-R cells (BioAssay ELISA kit Human or mouse respectively, US biological Life Science Salem, Mass., USA), following the manufacturer instructions. Absorbance was assessed at 450 nm.
(In general: An ELISA detects its analyte on a solid surface through an enzyme-linked reagent.)

Test [7] relates to L5178Y-R. Nature of the test: Western blot of HSP90, HSP70, CRT and HMGB1. As to conditions: CC50 and CC100, 2h. The test is classed as cell-based, murine. As to the method:
as §1

For test [8], the system named is CEM. Nature of the test: Calreticulin exposure (flow cytometry, confocal microscopy). The test is classed as cell-based, human. The note with it: CC50 of PKHB1, 2h. Here is the method: as §2
The subject of test [9] is MOLT-4. The description is as above. The test is classed as cell-based, human. The note with it: CC50 of PKHB1, 2h. As to the method:
as §2

Test [10] deals with L5178Y-R tumor. Nature of the test: PKHB1 treatment of L5178Y-R tumor-bearing mice. The format is in vivo, BALB/c mice. As to the method: The heparinized blood acquired from mice, was assessed using the Automatic Hematology Analyzer KontroLab. Blood smears were performed and fixed with methanol, stained with Wright's, and observed under the microscope to perform differential blood white cells counts.
Six-to-eight-week-old BALB/c female mice were maintained in controlled environmental conditions (25° C. and 12h light/dark cycle) and were supplied with rodent food (Science diet) and water ad libitum. • Prophylactic vaccinations: L5178Y-R cells (1.5, 3, 5×10^6) were treated with 300 μM of PKHB1 (CC100) for 2h. Cell death was confirmed using trypan blue staining and flow cytometry. Treated cells were inoculated subcutaneously in 100 μl PBS into the left hind of the leg, whereas 2×10^6 untreated control cells were inoculated into the right hind 7 days later (42). • Tumor establishment and measurement: Tumor was established by the subcutaneous injection of 1×10^6 L5178Y-R cells in 100 μL PBS, into the left hind of the leg. Tumor volume and weight were measured three times per week using a caliper (Digimatic Caliper Mitutoyo Corporation, Japan) and a digital scale (American Weigh Scale-600-BLK, USA). When the tumor reached 100 mm^3 the first PKHB1 injection (200 μg) was applied (day 0). Tumor volume was determined with the formula: tumor volume (mm3)=[…]*A*B*C. Long-term memory assay: Mice in complete remission after PKHB1 treatment, were rechallenged with 2×10^6 cells in 100 μL of PBS, into the opposite limb, and tumor volume was measured like described above.
Tissues and organs were obtained and fixed in 10% neutral formalin, embedded in paraffin, sectioned (5 µm thickness) and stained with H&E (Sigma-Aldrich, St Louis, Mo., USA). Histopathological analysis was done by an external veterinarian pathologist (National professional certificate 2593012). Immunohistochemistry was done using the appropriate primary antibody (CD4/CD8) and adding the biotinylated secondary antibody. Finally, hematoxylin-counterstained slides are coverslipped using resin as mounting solution and observed under microscopy.

Where [11] appears, read: PKHB1-treated vs untreated tumor-bearing mice, trypan blue count.

`CSCC[C@H](NC(=O)[C@@H](NC(=O)[C@@H](NC(=O)[C@H](Cc1ccc(O)cc1)NC(=O)[C@H](Cc1ccccc1)NC(=O)[C@H](CCCNC(=N)N)NC(=O)[C@H](N)CCCCN)C(C)C)C(C)C)C(=O)N[C@@H](Cc1c[nH]c2ccccc12)C(=O)N[C@@H](CCCCN)C(=O)N[C@H](CCCCN)C(=O)O` [PKHB1, (D)K-R-F-Y-V-V-M-W-K-(D)K]: the “expression of HSP90, HSP70, CRT and HMGB1 in cellular lysates” value in test [1], in test [2] and in test [7] was “decrease” each time. The “expression of HSP90, HSP70, CRT and HMGB1 in supernatants” value in [1] (vs untreated cells), in [2] (vs untreated cells) and in test [7] (vs untreated cells) was “increased” each time. The CRT exposure entry in test [3], in test [8] and in test [9] was “significant increase” in each case. Moreover, the “presence of ATP in supernatants” value in [4] and in test [5] was “significantly augmented” throughout. In addition, in [6], the “HMGB1 release compared to the untreated control” value amounted to 2 fold. Also, in [10] (200 μg PKHB1 intraperitoneally weekly, day 18), the “tumor histology (H&E), leukocyte infiltration” value was “contained a mixture of lymphocytes and polymorphonuclear cells”. Also, in test [10] (200 μg PKHB1 intraperitoneally weekly, day 30), the tumor regression entry was “complete tumor regression in most of the mice”. The “immunohistochemistry of tumor sections, CD4+ and CD8+ cells” value in [10] (PKHB1-treated tumor-bearing mice) was “presence of CD4+ and CD8+ cells”. In addition, the WBC differential result in test [10] (PKHB1-treated tumor-bearing mice vs healthy mice) is “no significant difference”. Moreover, in test [10] (setting [11]), the “cell number of BM, spleen and thymus cells” value is listed as “significant increase”. The “cell number of lymph nodes” value in [10] (setting [11]) is “significant decrease”.

The record behind these values is US20220000967A1, “SYNTHETIC PEPTIDES INDUCING IMMUNOGENIC CELL DEATH” (SORBONNE UNIVERSITE, priority 2018, published 2022).
